Broadly, the Kd is the free concentration of one partner at which half of the binding sites on the other are occupied at equilibrium, for simple one-to-one binding. A low value points to tighter binding.

Two compounds from ChEMBL document CHEMBL1123223, “New effective gonadotropin releasing hormone antagonists with minimal potency for histamine release in vitro” (J Med Chem, 1986) can be followed below.

Assay [1] is filed under the species Rattus norvegicus. Put plainly: Dissociation constant was determined in rat pituitary cells. The assay is classed as cell-based. The note with it: pituitary gland cell.
Assay [2] deals with T1, Gonadotropin-releasing hormone receptor (Rattus norvegicus) (UniProt P30969).
T1 sequence (whole entry): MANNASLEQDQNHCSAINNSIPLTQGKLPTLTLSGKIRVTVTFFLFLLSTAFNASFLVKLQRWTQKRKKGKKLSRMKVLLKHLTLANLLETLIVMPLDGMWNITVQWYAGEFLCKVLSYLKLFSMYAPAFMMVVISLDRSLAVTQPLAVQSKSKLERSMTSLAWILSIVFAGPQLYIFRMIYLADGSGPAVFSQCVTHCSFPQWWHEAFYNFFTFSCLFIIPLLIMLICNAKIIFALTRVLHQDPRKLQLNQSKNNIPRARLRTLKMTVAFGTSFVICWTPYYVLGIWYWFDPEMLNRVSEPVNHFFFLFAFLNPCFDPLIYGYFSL
As to the kind of experiment: Inhibition of GnRH-mediated LH secretion by cultured pituitary cells. The assay is classed as functional, cell-based. As to conditions: Pituitary gland cell.

For assay [3], the species on record is Rattus norvegicus. Put plainly: GnRH antagonistic dose of compound for 0 rats ovulation out of total 10 using anti-ovulatory assay in experiment 2. Format: functional.
Assay [4] is filed under the species Rattus norvegicus. Put plainly: GnRH antagonistic dose of compound for 5 rats ovulation out of total 10 using anti-ovulatory assay in experiment 1. The assay is classed as functional.
Assay [5] is filed under the species Rattus norvegicus. Put plainly: Compound was tested in vitro for its ability to inhibit histamine release from rat mast cells. The assay is classed as functional. The note with it: read-out: ED50 (the source's name).
The species entered for assay [6] is Rattus norvegicus. Put plainly: GnRH antagonistic dose of compound for 2 rats ovulation out of total 10 using anti-ovulatory assay in experiment 1. The assay is classed as functional.
For assay [7], the species on record is Rattus norvegicus. Put plainly: GnRH antagonistic dose of compound for 0 rats ovulation out of total 6 using anti-ovulatory assay in experiment 2. The assay is classed as functional.

Converted amounts (≈) assume the structure as drawn.

In the assay filed under Rattus norvegicus [1], `CC(=O)N[C@H](Cc1ccc2ccccc2c1)C(=O)N[C@H](Cc1ccc(Cl)cc1)C(=O)N[C@H](Cc1cccnc1)C(=O)N[C@@H](CO)C(=O)N[C@@H](CCCN=C(N)N)C(=O)N[C@H](Cc1cccnc1)C(=O)N[C@@H](CC(C)C)C(=O)N[C@@H](CCCN=C(N)N)C(=O)N1CCC[C@H]1C(=O)N[C@H](C)C(=O)O` had a Kd of 0.24 nM. The Relative potency in assay [2] was 0.91. The values for the ED100 in the assay filed under Rattus norvegicus [3] and in the assay filed under Rattus norvegicus [4] were 1 µg/kg and 0.5 µg/kg, respectively. The EC50 in the assay listed under Rattus norvegicus [5] stood at 2.9 µg/mL (≈ 2.05 µM).
For the compound `CC(=O)N[C@H](Cc1ccc2ccccc2c1)C(=O)N[C@H](Cc1ccc(Cl)cc1)C(=O)N[C@H](Cc1cccnc1)C(=O)N[C@@H](CO)C(=O)N[C@@H](CCCN=C(N)N)C(=O)N[C@H](Cc1c[nH]c2ccccc12)C(=O)N[C@@H](CC(C)C)C(=O)N[C@@H](CCCN=C(N)N)C(=O)N1CCC[C@H]1C(=O)N[C@H](C)C(=O)O`, the equilibrium dissociation constant (Kd) in the assay listed under Rattus norvegicus [1] was 0.96 nM. In assay [2], this compound displayed a Relative potency of 0.44. The ED100 came out at 0.5 µg/kg in the assay listed under Rattus norvegicus [6] and 1 µg/kg in the assay filed under Rattus norvegicus [7]. The EC50 in the assay listed under Rattus norvegicus [5] stood at 2.1 µg/mL (≈ 1.44 µM).
